This passage reports inhibition and IC50 results from ChEMBL document CHEMBL2010688, “Tri- and tetrasubstituted pyrazole derivates: regioisomerism switches activity from p38MAP kinase to important cancer kinases” (J Med Chem, 2012).

In assay [1] the target is Mitogen-activated protein kinase 14 (Homo sapiens) (UniProt Q16539). The assay can be described thus: Inhibition of p38alpha MAP kinase.
Assay [2] concerns the target Proto-oncogene tyrosine-protein kinase Src (Homo sapiens, UniProt P12931). Briefly: Inhibition of SRC using poly(Glu,Tyr) as substrate assessed as [33P-gamma]-ATP incorporation after 60 mins by microplate scintillation counting.
In assay [3] the target is Serine/threonine-protein kinase B-raf (Homo sapiens, UniProt P15056). Briefly: Inhibition of wild type B-Raf using MEK1-KM as substrate assessed as [33P-gamma]-ATP incorporation after 60 mins by microplate scintillation counting.
Assay [4] concerns the target Vascular endothelial growth factor receptor 2 (Homo sapiens, UniProt P35968). Briefly: Inhibition of VEGFR2 using poly(Glu,Tyr) as substrate assessed as [33P-gamma]-ATP incorporation after 60 mins by microplate scintillation counting.
For assay [5], the target named is Serine/threonine-protein kinase B-raf (Homo sapiens, UniProt P15056, V600E). Briefly: Inhibition of BRAF V600E mutant using MEK1-KM as substrate assessed as [33P-gamma]-ATP incorporation after 60 mins by microplate scintillation counting.

The source made the active and inactive calls. The rule behind the calls is not given here.

Chain of Serine/threonine-protein kinase B-raf (Homo sapiens, UniProt P15056, V600E) (P15056 2-766 V600E limits assumed): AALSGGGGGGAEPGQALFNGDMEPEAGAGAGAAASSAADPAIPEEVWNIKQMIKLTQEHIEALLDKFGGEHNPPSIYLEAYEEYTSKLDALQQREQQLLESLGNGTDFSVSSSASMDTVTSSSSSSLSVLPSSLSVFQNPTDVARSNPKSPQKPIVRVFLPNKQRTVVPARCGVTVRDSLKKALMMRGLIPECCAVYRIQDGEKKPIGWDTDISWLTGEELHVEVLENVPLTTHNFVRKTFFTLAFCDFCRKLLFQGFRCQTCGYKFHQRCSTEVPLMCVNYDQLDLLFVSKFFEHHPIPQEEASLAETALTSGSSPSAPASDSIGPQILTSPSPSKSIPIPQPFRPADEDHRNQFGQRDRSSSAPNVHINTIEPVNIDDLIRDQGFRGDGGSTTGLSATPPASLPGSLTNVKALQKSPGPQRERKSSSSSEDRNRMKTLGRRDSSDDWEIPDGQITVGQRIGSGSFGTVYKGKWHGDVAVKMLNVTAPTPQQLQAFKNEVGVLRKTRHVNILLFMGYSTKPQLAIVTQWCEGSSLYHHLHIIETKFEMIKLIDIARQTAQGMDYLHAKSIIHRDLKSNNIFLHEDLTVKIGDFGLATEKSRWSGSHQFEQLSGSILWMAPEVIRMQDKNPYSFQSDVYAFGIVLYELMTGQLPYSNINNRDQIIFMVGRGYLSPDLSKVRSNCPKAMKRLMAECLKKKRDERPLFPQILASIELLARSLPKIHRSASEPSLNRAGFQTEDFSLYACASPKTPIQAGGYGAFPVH
Chain of Vascular endothelial growth factor receptor 2 (P35968 whole entry): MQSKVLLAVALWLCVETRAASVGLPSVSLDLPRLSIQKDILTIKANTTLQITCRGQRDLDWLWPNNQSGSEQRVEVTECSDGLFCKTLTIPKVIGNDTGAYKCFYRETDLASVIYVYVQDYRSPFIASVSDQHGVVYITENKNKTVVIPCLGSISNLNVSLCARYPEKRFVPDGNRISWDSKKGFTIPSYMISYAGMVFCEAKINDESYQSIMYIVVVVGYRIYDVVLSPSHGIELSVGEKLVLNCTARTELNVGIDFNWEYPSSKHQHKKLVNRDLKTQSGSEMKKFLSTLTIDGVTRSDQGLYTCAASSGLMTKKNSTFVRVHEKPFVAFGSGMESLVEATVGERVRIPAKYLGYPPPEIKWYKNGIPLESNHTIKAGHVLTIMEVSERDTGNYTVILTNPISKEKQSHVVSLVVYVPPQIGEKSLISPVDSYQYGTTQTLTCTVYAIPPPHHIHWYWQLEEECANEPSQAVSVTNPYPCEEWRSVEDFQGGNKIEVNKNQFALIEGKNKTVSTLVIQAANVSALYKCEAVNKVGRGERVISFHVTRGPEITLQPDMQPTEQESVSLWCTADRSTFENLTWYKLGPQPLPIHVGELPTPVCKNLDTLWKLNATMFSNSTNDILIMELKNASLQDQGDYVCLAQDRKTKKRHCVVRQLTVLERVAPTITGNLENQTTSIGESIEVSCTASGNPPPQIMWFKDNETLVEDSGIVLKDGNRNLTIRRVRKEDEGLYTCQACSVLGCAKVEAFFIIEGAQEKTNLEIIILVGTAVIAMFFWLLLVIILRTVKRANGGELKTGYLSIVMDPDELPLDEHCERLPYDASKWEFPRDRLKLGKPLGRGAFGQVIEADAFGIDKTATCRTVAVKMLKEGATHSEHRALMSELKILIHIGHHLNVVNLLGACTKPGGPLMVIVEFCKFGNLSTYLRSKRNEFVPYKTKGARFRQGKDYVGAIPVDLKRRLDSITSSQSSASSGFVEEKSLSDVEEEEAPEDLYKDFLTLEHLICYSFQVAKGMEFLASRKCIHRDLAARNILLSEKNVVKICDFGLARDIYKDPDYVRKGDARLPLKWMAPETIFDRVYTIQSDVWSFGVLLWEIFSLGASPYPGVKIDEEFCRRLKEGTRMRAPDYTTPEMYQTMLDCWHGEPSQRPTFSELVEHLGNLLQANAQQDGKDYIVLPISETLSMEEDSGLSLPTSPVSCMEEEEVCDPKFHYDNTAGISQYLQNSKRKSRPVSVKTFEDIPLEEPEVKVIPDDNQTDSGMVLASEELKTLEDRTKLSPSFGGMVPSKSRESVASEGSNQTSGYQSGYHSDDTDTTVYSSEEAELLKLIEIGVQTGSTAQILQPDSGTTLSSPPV
Chain of Proto-oncogene tyrosine-protein kinase Src (P12931 2-536 limits assumed): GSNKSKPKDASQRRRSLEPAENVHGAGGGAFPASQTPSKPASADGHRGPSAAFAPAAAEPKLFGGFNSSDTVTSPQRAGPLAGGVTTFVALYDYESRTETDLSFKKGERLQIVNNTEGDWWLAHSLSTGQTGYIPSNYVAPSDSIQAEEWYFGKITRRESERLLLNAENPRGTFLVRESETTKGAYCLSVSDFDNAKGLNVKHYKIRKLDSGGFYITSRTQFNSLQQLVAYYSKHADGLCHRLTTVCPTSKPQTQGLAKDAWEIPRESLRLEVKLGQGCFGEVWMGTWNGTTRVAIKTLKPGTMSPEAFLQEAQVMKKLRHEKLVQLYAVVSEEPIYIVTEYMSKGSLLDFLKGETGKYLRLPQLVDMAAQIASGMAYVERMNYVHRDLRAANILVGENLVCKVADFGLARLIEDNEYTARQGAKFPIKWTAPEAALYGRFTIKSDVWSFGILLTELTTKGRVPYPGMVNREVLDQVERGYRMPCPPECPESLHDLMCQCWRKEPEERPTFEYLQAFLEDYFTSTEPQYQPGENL
Chain of Mitogen-activated protein kinase 14 (Homo sapiens) (Q16539 whole entry): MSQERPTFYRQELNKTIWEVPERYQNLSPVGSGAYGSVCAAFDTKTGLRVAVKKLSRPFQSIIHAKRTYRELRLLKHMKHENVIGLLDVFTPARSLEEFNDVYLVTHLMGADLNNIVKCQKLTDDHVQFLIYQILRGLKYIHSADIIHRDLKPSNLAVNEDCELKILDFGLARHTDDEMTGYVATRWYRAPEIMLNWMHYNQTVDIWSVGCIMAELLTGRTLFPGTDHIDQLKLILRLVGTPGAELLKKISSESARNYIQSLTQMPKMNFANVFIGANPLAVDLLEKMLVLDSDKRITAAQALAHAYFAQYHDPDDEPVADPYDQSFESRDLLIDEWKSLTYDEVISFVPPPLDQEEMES
Chain of Serine/threonine-protein kinase B-raf (Homo sapiens, UniProt P15056) (P15056 whole entry): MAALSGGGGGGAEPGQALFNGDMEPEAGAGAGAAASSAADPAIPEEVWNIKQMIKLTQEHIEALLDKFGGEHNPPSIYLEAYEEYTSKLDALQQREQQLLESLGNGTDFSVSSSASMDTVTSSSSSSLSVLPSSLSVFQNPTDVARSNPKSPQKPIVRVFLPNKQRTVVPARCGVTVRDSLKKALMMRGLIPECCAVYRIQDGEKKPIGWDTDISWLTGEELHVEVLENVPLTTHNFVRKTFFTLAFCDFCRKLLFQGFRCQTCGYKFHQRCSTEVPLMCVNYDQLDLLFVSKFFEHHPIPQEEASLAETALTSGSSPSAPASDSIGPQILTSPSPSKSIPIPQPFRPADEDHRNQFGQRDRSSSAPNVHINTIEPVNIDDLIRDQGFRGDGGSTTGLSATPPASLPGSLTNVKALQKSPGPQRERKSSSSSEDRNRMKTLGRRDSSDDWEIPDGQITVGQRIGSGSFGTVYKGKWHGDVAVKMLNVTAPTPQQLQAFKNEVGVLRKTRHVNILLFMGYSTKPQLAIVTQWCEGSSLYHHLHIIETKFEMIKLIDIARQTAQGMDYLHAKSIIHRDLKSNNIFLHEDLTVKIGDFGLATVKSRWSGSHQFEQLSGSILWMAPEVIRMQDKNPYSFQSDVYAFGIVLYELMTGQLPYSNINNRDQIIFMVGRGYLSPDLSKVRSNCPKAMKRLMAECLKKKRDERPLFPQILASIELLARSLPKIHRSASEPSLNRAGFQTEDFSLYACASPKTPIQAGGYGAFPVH

Turning to `NC(=O)c1c(-c2ccncc2)nn(-c2ccccc2)c1N`, the inhibition result in assay [1] was “inactive”.

What is called IC50 is the concentration that gives 50% inhibition. Take `Nc1c(-c2ccc(F)cc2)c(-c2ccncc2)nn1-c1c(Cl)cc(Cl)cc1Cl`: the inhibition entry in assay [1] was “inactive”. Also, the IC50 in assay [2] came out at 0.399 µM; in assay [3] it was 270 nM; in assay [4], 34 nM; in assay [5] it was 592 nM.

As to `Nc1c(-c2ccc(F)cc2)c(-c2ccncc2)nn1-c1ccc(Cl)cc1`, the inhibition result in assay [1] was “inactive”. The IC50 in assay [2] stood at 23 µM; in assay [4], 1200 nM; in assay [5], 800 nM.

For `Fc1ccc(-c2cn(-c3ccc(C(F)(F)F)cc3)nc2-c2ccncc2)cc1`, in assay [1], the inhibition result is “inactive”.

On to `Nc1c(-c2ccc(F)cc2)c(-c2ccncc2)nn1-c1ccc(C(F)(F)F)cc1`, for which the inhibition result in assay [1] is “inactive”. In addition, the IC50 worked out at 6.7 µM in assay [2], 2400 nM in assay [4] and 1500 nM in assay [5].

In the case of `Fc1ccc(-c2cn(-c3c(Cl)cc(Cl)cc3Cl)nc2-c2ccncc2)cc1`, in assay [1], the inhibition result was “inactive”. Besides, the IC50 came out at 2 µM in assay [2], 210 nM in assay [4] and 2500 nM in assay [5].

For the compound `Nc1c(-c2ccc(F)cc2)c(-c2ccncc2)nn1-c1ccccc1`, in assay [1], the inhibition entry is “inactive”.

On to `Nc1cc(-c2ccncc2)nn1-c1c(Cl)cc(Cl)cc1Cl`, for which the inhibition entry in assay [1] is “inactive”. The IC50 in assay [2] is greater than 100 µM; in assay [5], greater than 100000 nM.

Consider `CCOC(=O)c1c(-c2ccncc2)nn(-c2c(Cl)cc(Cl)cc2Cl)c1N`, for which the inhibition entry in assay [1] is “inactive”. In addition, the IC50 is greater than 100 µM in assay [2], greater than 100000 nM in assay [4] and greater than 100000 nM in assay [5].

For the compound `Nc1c(-c2ccc(F)cc2)c(-c2ccncc2)nn1-c1ccc([N+](=O)[O-])cc1`, in assay [1], the inhibition entry is “inactive”. The IC50 in assay [2] amounted to 82 µM; in assay [4], 1400 nM; in assay [5] it was 1400 nM.

Take `Cc1ccc(-n2nc(-c3ccncc3)c(-c3ccc(F)cc3)c2N)cc1`: the inhibition result in assay [1] was “inactive”. Also, the IC50 in assay [2] was determined as 53 µM; in assay [4], 2600 nM; in assay [5] it was 890 nM.

As to `N#Cc1ccc(-n2nc(-c3ccncc3)c(-c3ccc(F)cc3)c2N)cc1`, the inhibition result in assay [1] was “inactive”. Besides, the IC50 in assay [2] was greater than 100 µM.

Turning to `COc1ccc(-n2nc(-c3ccncc3)c(-c3ccc(F)cc3)c2N)cc1`, the inhibition result in assay [1] is “inactive”.

Regarding `NC(=O)c1c(-c2ccncc2)nn(-c2c(Cl)cc(Cl)cc2Cl)c1N`, in assay [1], the inhibition result was “inactive”. Moreover, the IC50 in assay [5] is greater than 100000 nM.

Turning to `Nc1c(C(=O)O)c(-c2ccncc2)nn1-c1c(Cl)cc(Cl)cc1Cl`, the inhibition result in assay [1] was “inactive”. The IC50 in assay [5] is greater than 100000 nM.
